Measured values published in patent US20100247658A1, “ORGANIC COMPOUNDS” (priority 2007, published 2010).

Experiments:
[1] = prior to micronisation
[2] = micronised, heated for 5 hours at 70° C. in a thermal oven; cited from earlier work

| Compound | dispersive surface energy [1] | recrystallisation of amorphous parts / stable product [2] |
| --- | --- | --- |
| C[N+]1(C)CCC(OC(=O)C(O)(c2ccccc2)C2CCCC2)C1.[Br-] (centres unmarked) [glycopyrrolate, 3-[(cyclopentyl-hydroxyphenylacetyl)oxy]-1,1-dimethyl-pyrrolidinium bromide] | 48 mJ/m^2 |  |
| salbutamol sulfate |  | failed to lead to recrystallisation |
